Among the data in US9446026B2, “Ocular formulations for drug-delivery to the posterior segment of the eye” (PanOptica, Inc., priority 2013, dated 2016) are pKa and solubility values, retold here.

Data set [1] can be described thus: pKa (water) of Compound-I drug substance. In kind it is physicochemical. The text has this: (§1) The embodiments provide three formulations of Compound-I or its free base—the Formula II compound.
Data set [2] can be described thus: Solubility of Compound-I drug substance. In kind it is physicochemical.
From the text: as §1

As a reminder, the pKa is the pH at which an ionisable group is half protonated. Read a high pKa as a group that holds its proton tightly. As usually defined, the solubility is the dissolved amount per volume that the medium holds. Consider `Cl.NC(=O)c1c(OCc2c(F)cc(Br)cc2F)nsc1NC(=O)NCCCCN1CCCC1` [Compound-I, 3-[(4-bromo-2,6-difluorophenyl)methoxy]-5-[[[[4-(1-pyrrolidinyl)butyl]amino]carbonyl]amino]-4-isothiazolecarboxamide hydrochloride], for which, in data set [1], the pKa is 10.5. In addition, the solubility in data set [2] (0.1N HCl, simulated gastric fluid) was 40 µg/mL; in data set [2] (0.1N NaOH, aqueous buffer), 50 µg/mL; in data set [2] (acetonitrile, organic solvent or mixture), 40 µg/mL; in data set [2] (aqueous buffer, pH 7.5 (0.05M NaH2PO4)), 1000 µg/mL; in data set [2] (aqueous buffer, pH 9.0 (0.05m Na2HPO4)), 700 µg/mL; in data set [2] (deionized water, water), 500 to 1200 µg/mL. For the same compound, the solubility in data set [2] (ethanol, organic solvent or mixture) was 700 µg/mL; in data set [2] (hexanes, organic solvent or mixture), below 10 µg/mL; in data set [2] (methanol, organic solvent or mixture), 4300 µg/mL; in data set [2] (tetrahydrofuran, organic solvent or mixture), 20 µg/mL.
